Laboratory results from the supplement of paper PMC13207355.

What was measured:
Details in all cases: exposure time: 72 h
E13 [1] = patient-derived glioblastoma stem cells of classical subtype; test: surviving fraction (nuclei count normalised to DMSO); higher = more cells surviving (less toxic)
E21 [2] = patient-derived glioblastoma stem cells of mesenchymal subtype; test: as above
E28 [3] = patient-derived glioblastoma stem cells of classical subtype; test: as above
E31 [4] = patient-derived glioblastoma stem cells of proneural subtype; test: as above
E34 [5] = patient-derived glioblastoma stem cells of proneural subtype; test: as above
E57 [6] = patient-derived glioblastoma stem cells of mesenchymal subtype; test: as above
FT3469 [7] = normal neural stem cell line; test: as above
E13 [8] = test: phenotypic distance (Euclidean, principal components) from DMSO controls (arbitrary units); higher = stronger morphological change
E21 [9] = test: as above
E28 [10] = test: as above
E31 [11] = test: as above
E34 [12] = test: as above
E57 [13] = test: as above
FT3469 [14] = test: as above
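Throughout, for phenotypic distance (Euclidean, principal components) from DMSO controls: cell Painting imaging in 384-well plates, CellProfiler features reduced to at least 20 principal components, Euclidean distance versus same-plate DMSO vehicle wells (0.1% v/v), median over six images per well.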
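Throughout, for surviving fraction (nuclei count normalised to DMSO): nuclei counted by high-content imaging of Hoechst-stained cells in laminin-coated 384-well plates, relative to 0.1% DMSO vehicle wells, with staurosporine as cell-death control.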

## COc1cc(N)c(Cl)cc1C(=O)NC1CCN(CCCOc2ccc(F)cc2)CC1OC (stereo unspecified) [Cisapride]
E13 [1]; 4.1 nM
  surviving fraction: 1.06
E13 [1]; 12.3 nM
  surviving fraction: 0.908
E13 [1]; 37 nM
  surviving fraction: 0.927
E13 [1]; 111.1 nM
  surviving fraction: 1
E13 [1]; 333.3 nM
  surviving fraction: 0.996
E13 [1]; 1000 nM
  surviving fraction: 0.958
E13 [1]; 3000 nM
  surviving fraction: 0.907
E21 [2]; 4.1 nM
  surviving fraction: 1.04
E21 [2]; 12.3 nM
  surviving fraction: 1.03
E21 [2]; 37 nM
  surviving fraction: 0.956
E21 [2]; 111.1 nM
  surviving fraction: 1.08
E21 [2]; 333.3 nM
  surviving fraction: 0.888
E21 [2]; 1000 nM
  surviving fraction: 0.863
E21 [2]; 3000 nM
  surviving fraction: 0.846
E28 [3]; 4.1 nM
  surviving fraction: 1.05
E28 [3]; 12.3 nM
  surviving fraction: 1.04
E28 [3]; 37 nM
  surviving fraction: 1.14
E28 [3]; 111.1 nM
  surviving fraction: 0.921
E28 [3]; 333.3 nM
  surviving fraction: 1.09
E28 [3]; 1000 nM
  surviving fraction: 0.963
E28 [3]; 3000 nM
  surviving fraction: 0.844
E31 [4]; 4.1 nM
  surviving fraction: 1.04
E31 [4]; 12.3 nM
  surviving fraction: 1.01
E31 [4]; 37 nM
  surviving fraction: 0.895
E31 [4]; 111.1 nM
  surviving fraction: 1
E31 [4]; 333.3 nM
  surviving fraction: 1.01
E31 [4]; 1000 nM
  surviving fraction: 0.972
E31 [4]; 3000 nM
  surviving fraction: 0.67
E34 [5]; 4.1 nM
  surviving fraction: 1.06
E34 [5]; 12.3 nM
  surviving fraction: 1.13
E34 [5]; 37 nM
  surviving fraction: 0.945
E34 [5]; 111.1 nM
  surviving fraction: 0.906
E34 [5]; 333.3 nM
  surviving fraction: 1.02
E34 [5]; 1000 nM
  surviving fraction: 0.971
E34 [5]; 3000 nM
  surviving fraction: 1.06
E57 [6]; 4.1 nM
  surviving fraction: 0.957
E57 [6]; 12.3 nM
  surviving fraction: 0.903
E57 [6]; 37 nM
  surviving fraction: 1.05
E57 [6]; 111.1 nM
  surviving fraction: 1.07
E57 [6]; 333.3 nM
  surviving fraction: 0.967
E57 [6]; 1000 nM
  surviving fraction: 1.04
E57 [6]; 3000 nM
  surviving fraction: 0.918
FT3469 [7]; 4.1 nM
  surviving fraction: 0.931
FT3469 [7]; 12.3 nM
  surviving fraction: 1.1
FT3469 [7]; 37 nM
  surviving fraction: 0.992
FT3469 [7]; 111.1 nM
  surviving fraction: 1.06
FT3469 [7]; 333.3 nM
  surviving fraction: 0.891
FT3469 [7]; 1000 nM
  surviving fraction: 1.2
FT3469 [7]; 3000 nM
  surviving fraction: 0.907
E13 [8]; 4.1 nM
  phenotypic distance: 0.873
E13 [8]; 12.3 nM
  phenotypic distance: 0.288
E13 [8]; 37 nM
  phenotypic distance: 0.382
E13 [8]; 111.1 nM
  phenotypic distance: 0.383
E13 [8]; 333.3 nM
  phenotypic distance: 0.399
E13 [8]; 1000 nM
  phenotypic distance: 0.304
E13 [8]; 3000 nM
  phenotypic distance: 0.549
E21 [9]; 4.1 nM
  phenotypic distance: 0.524
E21 [9]; 12.3 nM
  phenotypic distance: 0.638
E21 [9]; 37 nM
  phenotypic distance: 0.752
E21 [9]; 111.1 nM
  phenotypic distance: 0.754
E21 [9]; 333.3 nM
  phenotypic distance: 0.818
E21 [9]; 1000 nM
  phenotypic distance: 0.872
E21 [9]; 3000 nM
  phenotypic distance: 1.14
E28 [10]; 4.1 nM
  phenotypic distance: 0.867
E28 [10]; 12.3 nM
  phenotypic distance: 0.592
E28 [10]; 37 nM
  phenotypic distance: 0.923
E28 [10]; 111.1 nM
  phenotypic distance: 0.547
E28 [10]; 333.3 nM
  phenotypic distance: 1.1
E28 [10]; 1000 nM
  phenotypic distance: 0.901
E28 [10]; 3000 nM
  phenotypic distance: 1.01
E31 [11]; 4.1 nM
  phenotypic distance: 0.443
E31 [11]; 12.3 nM
  phenotypic distance: 0.553
E31 [11]; 37 nM
  phenotypic distance: 0.533
E31 [11]; 111.1 nM
  phenotypic distance: 0.657
E31 [11]; 333.3 nM
  phenotypic distance: 0.557
E31 [11]; 1000 nM
  phenotypic distance: 0.668
E31 [11]; 3000 nM
  phenotypic distance: 0.804
E34 [12]; 4.1 nM
  phenotypic distance: 0.74
E34 [12]; 12.3 nM
  phenotypic distance: 0.611
E34 [12]; 37 nM
  phenotypic distance: 0.666
E34 [12]; 111.1 nM
  phenotypic distance: 0.904
E34 [12]; 333.3 nM
  phenotypic distance: 0.986
E34 [12]; 1000 nM
  phenotypic distance: 0.415
E34 [12]; 3000 nM
  phenotypic distance: 0.914
E57 [13]; 4.1 nM
  phenotypic distance: 0.385
E57 [13]; 12.3 nM
  phenotypic distance: 0.606
E57 [13]; 37 nM
  phenotypic distance: 0.667
E57 [13]; 111.1 nM
  phenotypic distance: 0.47
E57 [13]; 333.3 nM
  phenotypic distance: 0.668
E57 [13]; 1000 nM
  phenotypic distance: 0.946
E57 [13]; 3000 nM
  phenotypic distance: 0.645
FT3469 [14]; 4.1 nM
  phenotypic distance: 1.16
FT3469 [14]; 12.3 nM
  phenotypic distance: 0.775
FT3469 [14]; 37 nM
  phenotypic distance: 1.12
FT3469 [14]; 111.1 nM
  phenotypic distance: 2.83
FT3469 [14]; 333.3 nM
  phenotypic distance: 0.576
FT3469 [14]; 1000 nM
  phenotypic distance: 1.05
FT3469 [14]; 3000 nM
  phenotypic distance: 0.797

## Nc1nc(Cl)nc2c1ncn2[C@@H]1O[C@H](CO)[C@@H](O)[C@@H]1F [Clofarabine]
E13 [1]; 4.1 nM
  surviving fraction: 0.852
E13 [1]; 12.3 nM
  surviving fraction: 0.979
E13 [1]; 37 nM
  surviving fraction: 0.86
E13 [1]; 111.1 nM
  surviving fraction: 0.941
E13 [1]; 333.3 nM
  surviving fraction: 0.913
E13 [1]; 1000 nM
  surviving fraction: 0.789
E13 [1]; 3000 nM
  surviving fraction: 0.318
E21 [2]; 4.1 nM
  surviving fraction: 0.962
E21 [2]; 12.3 nM
  surviving fraction: 0.885
E21 [2]; 37 nM
  surviving fraction: 0.825
E21 [2]; 111.1 nM
  surviving fraction: 0.771
E21 [2]; 333.3 nM
  surviving fraction: 0.343
E21 [2]; 1000 nM
  surviving fraction: 0.118
E21 [2]; 3000 nM
  surviving fraction: 0.116
E28 [3]; 4.1 nM
  surviving fraction: 0.864
E28 [3]; 12.3 nM
  surviving fraction: 0.907
E28 [3]; 37 nM
  surviving fraction: 0.515
E28 [3]; 111.1 nM
  surviving fraction: 0.559
E28 [3]; 333.3 nM
  surviving fraction: 0.341
E28 [3]; 1000 nM
  surviving fraction: 0.366
E28 [3]; 3000 nM
  surviving fraction: 0.3
E31 [4]; 4.1 nM
  surviving fraction: 0.754
E31 [4]; 12.3 nM
  surviving fraction: 0.892
E31 [4]; 37 nM
  surviving fraction: 0.64
E31 [4]; 111.1 nM
  surviving fraction: 0.205
E31 [4]; 333.3 nM
  surviving fraction: 0.142
E31 [4]; 1000 nM
  surviving fraction: 0.236
E31 [4]; 3000 nM
  surviving fraction: 0.206
E34 [5]; 4.1 nM
  surviving fraction: 0.858
E34 [5]; 12.3 nM
  surviving fraction: 1.04
E34 [5]; 37 nM
  surviving fraction: 0.894
E34 [5]; 111.1 nM
  surviving fraction: 0.777
E34 [5]; 333.3 nM
  surviving fraction: 0.558
E34 [5]; 1000 nM
  surviving fraction: 0.495
E34 [5]; 3000 nM
  surviving fraction: 0.541
E57 [6]; 4.1 nM
  surviving fraction: 0.939
E57 [6]; 12.3 nM
  surviving fraction: 0.847
E57 [6]; 37 nM
  surviving fraction: 0.741
E57 [6]; 111.1 nM
  surviving fraction: 0.402
E57 [6]; 333.3 nM
  surviving fraction: 0.186
E57 [6]; 1000 nM
  surviving fraction: 0.168
E57 [6]; 3000 nM
  surviving fraction: 0.165
FT3469 [7]; 4.1 nM
  surviving fraction: 0.827
FT3469 [7]; 12.3 nM
  surviving fraction: 0.915
FT3469 [7]; 37 nM
  surviving fraction: 0.875
FT3469 [7]; 111.1 nM
  surviving fraction: 0.79
FT3469 [7]; 333.3 nM
  surviving fraction: 0.702
FT3469 [7]; 1000 nM
  surviving fraction: 0.497
FT3469 [7]; 3000 nM
  surviving fraction: 0.428
E13 [8]; 4.1 nM
  phenotypic distance: 0.623
E13 [8]; 12.3 nM
  phenotypic distance: 2.78
E13 [8]; 37 nM
  phenotypic distance: 0.684
E13 [8]; 111.1 nM
  phenotypic distance: 0.632
E13 [8]; 333.3 nM
  phenotypic distance: 0.616
E13 [8]; 1000 nM
  phenotypic distance: 1.66
E13 [8]; 3000 nM
  phenotypic distance: 5.91
E21 [9]; 4.1 nM
  phenotypic distance: 0.844
E21 [9]; 12.3 nM
  phenotypic distance: 1.11
E21 [9]; 37 nM
  phenotypic distance: 1.36
E21 [9]; 111.1 nM
  phenotypic distance: 2.15
E21 [9]; 333.3 nM
  phenotypic distance: 4.37
E21 [9]; 1000 nM
  phenotypic distance: 4.92
E21 [9]; 3000 nM
  phenotypic distance: 4.35
E28 [10]; 4.1 nM
  phenotypic distance: 1.24
E28 [10]; 12.3 nM
  phenotypic distance: 1.42
E28 [10]; 37 nM
  phenotypic distance: 1.73
E28 [10]; 111.1 nM
  phenotypic distance: 2.31
E28 [10]; 333.3 nM
  phenotypic distance: 3.06
E28 [10]; 1000 nM
  phenotypic distance: 3.17
E28 [10]; 3000 nM
  phenotypic distance: 3.21
E31 [11]; 4.1 nM
  phenotypic distance: 1.08
E31 [11]; 12.3 nM
  phenotypic distance: 1.33
E31 [11]; 37 nM
  phenotypic distance: 1.67
E31 [11]; 111.1 nM
  phenotypic distance: 2.85
E31 [11]; 333.3 nM
  phenotypic distance: 3.28
E31 [11]; 1000 nM
  phenotypic distance: 2.52
E31 [11]; 3000 nM
  phenotypic distance: 2.66
E34 [12]; 4.1 nM
  phenotypic distance: 0.795
E34 [12]; 12.3 nM
  phenotypic distance: 0.848
E34 [12]; 37 nM
  phenotypic distance: 0.943
E34 [12]; 111.1 nM
  phenotypic distance: 2.17
E34 [12]; 333.3 nM
  phenotypic distance: 3.94
E34 [12]; 1000 nM
  phenotypic distance: 3.25
E34 [12]; 3000 nM
  phenotypic distance: 3.42
E57 [13]; 4.1 nM
  phenotypic distance: 0.635
E57 [13]; 12.3 nM
  phenotypic distance: 1.15
E57 [13]; 37 nM
  phenotypic distance: 2.09
E57 [13]; 111.1 nM
  phenotypic distance: 5.48
E57 [13]; 333.3 nM
  phenotypic distance: 5.92
E57 [13]; 1000 nM
  phenotypic distance: 6.82
E57 [13]; 3000 nM
  phenotypic distance: 6.53
FT3469 [14]; 4.1 nM
  phenotypic distance: 0.724
FT3469 [14]; 12.3 nM
  phenotypic distance: 0.807
FT3469 [14]; 37 nM
  phenotypic distance: 0.917
FT3469 [14]; 111.1 nM
  phenotypic distance: 1.95
FT3469 [14]; 333.3 nM
  phenotypic distance: 2.04
FT3469 [14]; 1000 nM
  phenotypic distance: 1.6
FT3469 [14]; 3000 nM
  phenotypic distance: 2.19
